Results published in ChEMBL document CHEMBL3351389, “Identification of novel inhibitors of phospho-MurNAc-pentapeptide translocase MraY from library screening: Isoquinoline alkaloid michellamine B and xanthene dye phloxine B” (Bioorg Med Chem, 2014).
Values after ≈ are worked out from the molar mass of the structure shown. One block for each molecule: values may come before it. Active and inactive are the calls of the source. The rule behind the calls is not given here.

How the values were obtained:
[1] = biological target: T1, Phospho-N-acetylmuramoyl-pentapeptide-transferase (Escherichia coli) (UniProt E2QF15); assay: Inhibition of recombinant MraY overexpressed in Escherichia coli membranes after 30 mins by radiochemical assay in presence of [14C-D-Ala]-UDPMurNAc-pentapeptide; type: cell membranes
T1 sequence (whole entry): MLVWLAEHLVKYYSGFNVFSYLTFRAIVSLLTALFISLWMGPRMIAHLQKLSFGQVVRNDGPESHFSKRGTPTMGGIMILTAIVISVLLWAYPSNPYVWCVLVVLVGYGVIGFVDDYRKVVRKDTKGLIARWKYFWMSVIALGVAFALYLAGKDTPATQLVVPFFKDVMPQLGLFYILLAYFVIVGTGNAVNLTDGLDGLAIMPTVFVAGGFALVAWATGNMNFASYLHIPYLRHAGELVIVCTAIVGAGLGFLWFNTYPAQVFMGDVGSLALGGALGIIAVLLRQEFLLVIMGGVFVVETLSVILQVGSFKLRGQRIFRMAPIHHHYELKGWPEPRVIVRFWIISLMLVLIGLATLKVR

[2] = biological target: T1, Phospho-N-acetylmuramoyl-pentapeptide-transferase (Escherichia coli); assay: Inhibition of recombinant MraY overexpressed in Escherichia coli membranes at 100 uM after 30 mins by radiochemical assay in presence of [14C-D-Ala]-UDPMurNAc-pentapeptide; type: cell membranes
Micrococcus flavus [3] = assay: Inhibition of MraY in Micrococcus flavus membranes at 500 uM by continuous fluorescence assay; type: cell membranes
[4] = biological target: T1, Phospho-N-acetylmuramoyl-pentapeptide-transferase (Escherichia coli); assay: Inhibition of recombinant MraY overexpressed in Escherichia coli membranes at 500 uM after 30 mins by radiochemical assay in presence of [14C-D-Ala]-UDPMurNAc-pentapeptide; type: cell membranes
Pseudomonas aeruginosa = assay: Inhibition of MraY in Pseudomonas aeruginosa membranes at 500 uM by continuous fluorescence assay; type: cell membranes
Escherichia coli [5] = assay: Inhibition of recombinant Escherichia coli MurG at 500 ug/ml after 30 mins by radiochemical assay in presence of [3H]-UDPGlcNAc
Bacillus subtilis = assay: Antimicrobial activity against Bacillus subtilis W23 by liquid culture microtitre plate assay; type: functional
Pseudomonas putida = assay: Antimicrobial activity against Pseudomonas putida ATCC 33015 at 1.95 to 125 ug/ml by liquid culture microtitre plate assay; type: functional, organism-based
Escherichia coli [6] = assay: Antimicrobial activity against Escherichia coli DH5[alpha] at 1.95 to 125 ug/ml by liquid culture microtitre plate assay; type: functional, organism-based
Micrococcus flavus [7] = assay: Antimicrobial activity against Micrococcus flavus at 1.95 to 125 ug/ml by liquid culture microtitre plate assay; type: functional, organism-based
Staphylococcus aureus = assay: Inhibition of MraY in Staphylococcus aureus membranes at 500 uM by continuous fluorescence assay; type: cell membranes
[8] = biological target: T2, Phospho-N-acetylmuramoyl-pentapeptide-transferase (Escherichia coli, UniProt E2QF15); assay: Inhibition of recombinant MraY overexpressed in Escherichia coli membranes by continuous fluorescence assay; type: cell membranes
T2 sequence (E2QF15 whole entry): T1 sequence (whole entry)

[9] = Inhibition of MraY in Bacillus subtilis membranes by continuous fluorescence assay; type: cell membranes
Escherichia coli [10] = assay: Inhibition of recombinant Escherichia coli MurG at 50 ug/ml after 30 mins by radiochemical assay in presence of [3H]-UDPGlcNAc
[11] = biological target: T1, Phospho-N-acetylmuramoyl-pentapeptide-transferase (Escherichia coli); assay: Inhibition of recombinant MraY overexpressed in Escherichia coli membranes at 25 ug/ml by continuous fluorescence assay; type: cell membranes
[12] = Inhibition of MraY in Pseudomonas aeruginosa membranes by continuous fluorescence assay; type: cell membranes
[13] = Inhibition of MraY in Staphylococcus aureus membranes by continuous fluorescence assay; type: cell membranes
[14] = Inhibition of MraY in Micrococcus flavus membranes by continuous fluorescence assay; type: cell membranes

inhibition [1]: inactive
Molecule: O=C(O)c1ccccc1-c1c2cc(Br)c(=O)cc-2oc2cc(O)c(Br)cc12

inhibition [2]: 20% | inhibition (Micrococcus flavus [3]): 14% | inhibition [4]: 60% | inhibition (Pseudomonas aeruginosa): 38% | inhibition (Escherichia coli [5]): inactive | MIC (Bacillus subtilis): 16 µg/mL (≈ 21.1 µM) | inhibition (Staphylococcus aureus): 0% | IC50 [8]: 456 µM | IC50 [9]: 386 µM
Molecule: COc1cc(C)cc2c(-c3c(O)cc(O)c4c3C[C@@H](C)N[C@@H]4C)cc(-c3cc(-c4c(O)cc(O)c5c4C[C@@H](C)N[C@@H]5C)c4cc(C)cc(OC)c4c3O)c(O)c12 [MICHELLAMINE A]
Activity (Pseudomonas putida): inactive | Activity (Escherichia coli [6]): inactive | Activity (Micrococcus flavus [7]): inactive

inhibition [1]: inactive
Molecule: O=C(O)c1ccccc1-c1c2cc(Cl)c(=O)cc-2oc2cc(O)c(Cl)cc12

inhibition (Escherichia coli [10]): > 80%
Molecule: RAMOPLANIN

Molecule: CC(=O)N[C@H]1[C@@H](O[C@@H]2O[C@H](CC(O)[C@H]3O[C@@H](n4ccc(=O)[nH]c4=O)[C@H](O)[C@@H]3O)[C@H](O)[C@H](O)[C@H]2NC(=O)/C=C/CC(C)C)O[C@H](CO)[C@@H](N)[C@@H]1O (stereo partly drawn)
inhibition [11]: > 95%

Molecule: O=C(O)c1c(Cl)c(Cl)c(Cl)c(Cl)c1-c1c2cc(Br)c(=O)c(Br)c-2oc2c(Br)c(O)c(Br)cc12
IC50 [12]: 128 µM | inhibition (Escherichia coli [5]): inactive | IC50 [13]: 254 µM | IC50 [14]: 195 µM | IC50 [8]: 32 µM | IC50 [9]: 165 µM | inhibition [1]: Active
